Assay results from patent publication US10173981B2, “Picolinamides as fungicides” (DOW AGROSCIENCES LLC, priority 2014, dated 2019).
Read-outs that look alike come from different tables or passages of the source.

Assays:
Type in all cases: in vivo
Puccinia triticina = assay: Fungicidal activity: wheat brown rust (PUCCRT), wheat seedlings; conditions: for pest or weed control at 100 ppm: High volume, wheat; for pest or weed control at 121.5 g/ha: Low Volume Cereal Activity at 121.5 g/Ha
Protocol: All fungicides were evaluated using the aforementioned method for their activity vs. all target diseases, unless stated otherwise. Wheat leaf blotch and brown rust activity were also evaluated using track spray applications, in which case the fungicides were formulated as EC formulations, containing 0.1% Trycol 5941 in the spray solutions. Wheat plants (variety Yuma) were grown from seed in a greenhouse in 50% mineral soil/50% soil-less Metro mix until the first leaf was fully emerged, with 7-10 seedlings per pot. These plants were inoculated with an aqueous spore suspension of Zymoseptoria tritici either prior to or after fungicide treatments. After inoculation the plants were kept in 100% relative humidity (one day in a dark dew chamber followed by two to three days in a lighted dew chamber at 20° C.) to permit spores to germinate and infect the leaf. The plants were then transferred to a greenhouse set at 20° C. for disease to develop. When disease symptoms were fully expressed on the 1st leaves of untreated plants, infection levels were assessed on a scale of 0 to 100 percent disease severity. Percent disease control was calculated using the ratio of disease severity on treated plants relative to untreated plants. Example B: Evaluation of Fungicidal Activity: Wheat Brown Rust (Puccinia triticina; Synonym: Puccinia recondita f. sp. tritici; Bayer code PUCCRT) Wheat plants (variety Yuma) were grown from seed in a greenhouse in 50% mineral soil/50% soil-less Metro mix until the first leaf was fully emerged, with 7-10 seedlings per pot. These plants were inoculated with an aqueous spore suspension of Puccinia triticina either prior to or after fungicide treatments. […] The plants were then transferred to a greenhouse set at 24° C. for disease to develop. Fungicide formulation, application and disease assessment followed the procedures as described in the Example A.

Zymoseptoria tritici = assay: Fungicidal activity: leaf blotch of wheat (SEPTTR), wheat seedlings; conditions: for pest or weed control at 100 ppm: High volume, wheat; for pest or weed control at 121.5 g/ha: Low Volume Cereal Activity at 121.5 g/Ha
Protocol: All fungicides were evaluated using the aforementioned method for their activity vs. all target diseases, unless stated otherwise. Wheat leaf blotch and brown rust activity were also evaluated using track spray applications, in which case the fungicides were formulated as EC formulations, containing 0.1% Trycol 5941 in the spray solutions. Wheat plants (variety Yuma) were grown from seed in a greenhouse in 50% mineral soil/50% soil-less Metro mix until the first leaf was fully emerged, with 7-10 seedlings per pot. These plants were inoculated with an aqueous spore suspension of Zymoseptoria tritici either prior to or after fungicide treatments. After inoculation the plants were kept in 100% relative humidity (one day in a dark dew chamber followed by two to three days in a lighted dew chamber at 20° C.) to permit spores to germinate and infect the leaf. The plants were then transferred to a greenhouse set at 20° C. for disease to develop. When disease symptoms were fully expressed on the 1st leaves of untreated plants, infection levels were assessed on a scale of 0 to 100 percent disease severity. Percent disease control was calculated using the ratio of disease severity on treated plants relative to untreated plants.

Phakopsora pachyrhizi = assay: Fungicidal activity: Asian soybean rust (PHAKPA), soybean seedlings; conditions: High volume; for pest or weed control at 25 ppm: Phakopsora pachyrhizi
Cercospora beticola = assay: Fungicidal activity: leaf spot of sugar beets (CERCBE); conditions: 1DP, high volume, sugar beet, read-out: CERCBE (% control rating)
[1] = system: Colletotrichum lagenarium; assay: Fungicidal activity: cucumber anthracnose (COLLLA), cucumber seedlings; conditions: Colletotrichum orbiculare, 1DP, high volume, read-out: COLLLA (% control rating)
Leptosphaeria nodorum = assay: Fungicidal activity: wheat glume blotch (LEPTNO), wheat seedlings; conditions: Parastagonospora nodorum, 1DP, high volume, read-out: LEPTNO (% control rating)
Pyricularia oryzae = assay: whole plant or invertebrate; conditions: read-out: PYRIOR (% control rating)
Venturia inaequalis = assay: Fungicidal activity: apple scab (VENTIN), apple seedlings; conditions: 1DP, high volume, read-out: VENTIN (% control rating)
Alternaria solani = assay: Fungicidal activity: tomato early blight (ALTESO), tomato plants; conditions: 1DP, high volume, read-out: ALTESO (% control rating)
Rhyncosporium secalis = assay: Fungicidal activity: barley scald (RHYNSE), barley seedlings; conditions: Hordeum vulgare, 1DP, high volume, read-out: RHYNSE (% control rating)
[2] = 24 h, 1 Day Protectant, read-out: PUCCRT 1 DP (Wheat Brown Rust, 1 Day Protectant)
[3] = 72 h, 3 Day Curative, read-out: PUCCRT 3 DC (Wheat Brown Rust, 3 Day Curative)
[4] = 24 h, 1 Day Protectant, read-out: SEPTTR 1 DP (Wheat Leaf Blotch, 1 Day Protectant)
[5] = 72 h, 3 Day Curative, read-out: SEPTTR 3 DC (Wheat Leaf Blotch, 3 Day Curative)
[6] = 24 h, 1 day protectant, read-out: PHAKPA 1 DP (% control rating)
[7] = 72 h, 3 day curative, read-out: PHAKPA 3 DC (% control rating)

COc1cc(F)ccc1[C@@H](Oc1ccccc1)[C@H](C)OC(=O)[C@H](C)NC(=O)c1nccc(OC)c1O [Example 178]
pest or weed control at 100 ppm (Puccinia triticina; 24 h, 1 day protectant, read-out: PUCCRT 1 DP (% control rating)): > 80% | pest or weed control at 100 ppm (Puccinia triticina; 72 h, 3 day curative, read-out: PUCCRT 3 DC (% control rating)): < 80% | pest or weed control at 100 ppm (Zymoseptoria tritici; 24 h, 1 day protectant, read-out: SEPTTR 1 DP (% control rating)): > 80% | pest or weed control at 100 ppm (Zymoseptoria tritici; 72 h, 3 day curative, read-out: SEPTTR 3 DC (% control rating)): > 80%

COc1cc(F)ccc1[C@@H](Oc1ccccc1)[C@H](C)OC(=O)[C@H](C)NC(=O)c1nccc(OC)c1OC(C)=O [Example 270]
PHAKPA 1 DP (% control rating) (Phakopsora pachyrhizi; 25 ppm, 1 day protectant): B (≤80) | PHAKPA 3 DC (% control rating) (Phakopsora pachyrhizi; 25 ppm, 3 day curative): D (≤0)

COc1ccnc(C(=O)N[C@@H](C)C(=O)O[C@@H](C)C(Oc2ccc(F)cc2)c2ccc(F)cc2)c1OC(C)=O (stereo partly shown) [Example 236]
pest or weed control at 100 ppm (Cercospora beticola): > 80% | pest or weed control at 100 ppm [1]: < 80% | pest or weed control at 100 ppm (Leptosphaeria nodorum): > 80% | pest or weed control at 100 ppm (Pyricularia oryzae): > 80% | pest or weed control at 121.5 g/ha (Puccinia triticina; [2]): > 80% | pest or weed control at 121.5 g/ha (Puccinia triticina; [3]): > 80% | pest or weed control at 100 ppm (Venturia inaequalis): > 80% | pest or weed control at 100 ppm (Alternaria solani): < 80% | pest or weed control at 100 ppm (Rhyncosporium secalis): > 80% | pest or weed control at 121.5 g/ha (Zymoseptoria tritici; [4]): > 80% | pest or weed control at 121.5 g/ha (Zymoseptoria tritici; [5]): > 80% | pest or weed control at 25 ppm (Phakopsora pachyrhizi; [6]): > 80% | pest or weed control at 25 ppm (Phakopsora pachyrhizi; [7]): < 0%

COc1cc(C)ccc1[C@@H](Oc1ccccc1)[C@H](C)OC(=O)[C@H](C)NC(=O)c1nccc(OC)c1OC(C)=O [Example 269]
pest or weed control at 121.5 g/ha (Puccinia triticina; [2]): > 80% | pest or weed control at 121.5 g/ha (Puccinia triticina; [3]): > 80% | pest or weed control at 121.5 g/ha (Zymoseptoria tritici; [4]): > 80% | pest or weed control at 121.5 g/ha (Zymoseptoria tritici; [5]): > 80% | pest or weed control at 25 ppm (Phakopsora pachyrhizi; [6]): > 80% | pest or weed control at 25 ppm (Phakopsora pachyrhizi; [7]): < 80%
